According to patent publication US6699686B1, “Modified nuclear glucocorticoid receptor, fusion protein, and DNA fragments coding for said receptor and said fusion protein” (Association pour le Development de la Recherche en …, priority 1996, dated 2004):

Target: T1, Cre-LBD[GR(I747/T)] (Homo sapiens, UniProt P04150, I747T)
T1 construct: the region containing the mutated LBD of HG1 [aa 500-777]; Cre recombinase aa 1-343 (bacteriophage P1); F region of the human estrogen receptor (aa 553-595); expressed in transfected cells
T1 sequence (P04150 500-777 I747T): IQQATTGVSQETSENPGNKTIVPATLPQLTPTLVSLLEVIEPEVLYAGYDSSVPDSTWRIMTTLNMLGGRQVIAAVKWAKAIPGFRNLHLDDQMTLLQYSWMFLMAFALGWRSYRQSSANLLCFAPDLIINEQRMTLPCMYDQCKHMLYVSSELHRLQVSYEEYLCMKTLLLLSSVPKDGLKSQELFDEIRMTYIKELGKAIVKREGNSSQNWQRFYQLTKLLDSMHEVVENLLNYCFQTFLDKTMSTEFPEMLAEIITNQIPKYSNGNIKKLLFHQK
Assay: PCR analysis of recombinase activity in RXRα+/−(LNL):Cre-GR(I747/T) line constitutively expressing the chimeric protein
Type: cell-based
Conditions: for recombinase activity: ligand concentration ranging from 10^−9 to 10^−6 M; for recombinase activity (191 bp PCR fragment of recombinant allele): ligand 10^−6 M, 72 hours, expression cassette integrated into the genome
Protocol: The resistant clones were obtained according to the procedure described by Metzger et al. (28).
The DNA amplifications were carried out using the “Polymerase Chain Reaction” (PCR) technique according to the protocol described by Chen and Evans (60). The primers used are: SB211 and PZ105, having respectively as nucleotide sequence 5′-[…]-3′ (SEQ ID NO: 10) and 5′-[…]-3′ (SEQ ID NO: 11). After denaturation for 8 min at 94° C., 2.5 units of Taq polymerase are added. The amplification is carried out by performing 35 cycles (30 sec. at 94° C., 30 sec. at 50° C.) followed by one cycle (30 sec. at 94° C., 30 sec. at 50° C., 5 min at 72° C.), the product of which is stored at 4° C.
The products of the reactions were separated on polyacrylamide (10%) or agarose (2.5%) gel. The DNA was visualized by UV followed by ethidium bromide staining, or by Southern blotting (42).
The amplified DNA was separated on acrylamide gel and stained with ethidium bromide. Lanes 1, 2, 3 and 4 contain respectively the PCR products produced with DNA extracted from wild-type (WT) F9 cells, RXRα^+/−(LNL), RXRα^+/−(L) cells and C2RXRα^+(L)/−(L) cells (73). Lane 8 contains a size marker (1 kb ladder; GibcoBRL).
The amplified DNA was separated on agarose gel and analyzed according to the Southern technique. The amplified fragments corresponding to the wild-type and recombinant alleles were detected by hybridization with the aid of the synthetic oligonucleotide (5′-[…]-3′) (SEQ ID NO: 12), radiolabeled at the 5′ end with T4 polynucleotide kinase. The signal was visualited and quantified with the aid of a “phosphoimager” (Fujix bas2000).
The recombinant allele was detected according to the procedure described in FIG. 8. The amplified DNA was separated on agarose gel and analyzed according to the Southern technique. The amplified fragments corresponding to the recombinant allele were detected by autoradiography following hybridization with the synthetic oligonucleotide 5′-[…]-3′ (SEQ ID NO: 13), (containing a loxP site) radiolabeled with Phosphorus^32 at the 5′ end by T4 polynucleotide kinase.
The recombinase activity was tested following a treatment of these cells with Dex (10^−6 M) for 72 hours.

SMILES | recombinase activity | recombinase activity (191 bp PCR fragment of recombinant allele) (listed as Dex) | recombinase activity (191 bp PCR fragment of recombinant allele)
C[C@]12CCC(=O)C=C1CC[C@@H]1[C@@H]2[C@@H](O)C[C@]2(C=O)[C@@H](C(=O)CO)CC[C@@H]12 [Aldosterone, aldosterone] | No recombinase activity |  | 
C[C@@H]1C[C@H]2[C@@H]3CCC4=CC(=O)C=C[C@]4(C)[C@@]3(F)[C@@H](O)C[C@]2(C)[C@@]1(O)C(=O)CO [Dexamethasone, dexamethasone] |  | active | 
C[C@]12C[C@H](O)[C@H]3[C@@H](CCC4=CC(=O)CC[C@@]43C)[C@@H]1CC[C@@H]2C(=O)CO [Corticosterone, corticosterone] | No recombinase activity |  | 
C[C@]12CCC(=O)C=C1CC[C@@H]1[C@@H]2[C@@H](O)C[C@@]2(C)[C@H]1CC[C@]2(O)C(=O)CO [Cortisol, cortisol] | No recombinase activity |  | inactive
